In US8362031B2, “Lonidamine analogues and treatment of polycystic kidney disease” (University of Kansas, priority 2004, dated 2013):

System: male rats
Test: Fertility trials following oral administration (challenge mating)
Format: in vivo, rat
Experimental: The following table illustrates the results of a single oral does of 6 mg/kg of RC-MC-110 orally to male rats. […] The ethyl alcohol was evaporated 10% prior to administration. The “embryos normal” and “embryos abnormal” represents the mean number of embryos per pregnant female. […]
The following table illustrates the results of a single oral does of four different doses of RC-MC-110 orally to male rats.

[1] = Table 9A, seven consecutive daily oral doses of 6 mg/day, week 1
[2] = Table 9A, seven consecutive daily oral doses of 6 mg/day, week 2
[3] = Table 9A, seven consecutive daily oral doses of 6 mg/day, week 3
[4] = Table 9A, seven consecutive daily oral doses of 6 mg/day, week 4
[5] = Table 9A, seven consecutive daily oral doses of 6 mg/day, week 5
[6] = Table 9A, seven consecutive daily oral doses of 6 mg/day, week 6
[7] = Table 9A, seven consecutive daily oral doses of 6 mg/day, week 7
[8] = Table 9A, seven consecutive daily oral doses of 6 mg/day, week 8
[9] = Table 9A, seven consecutive daily oral doses of 6 mg/day, week 9
[10] = Table 9A, seven consecutive daily oral doses of 6 mg/day, week 10
[11] = Table 9A, seven consecutive daily oral doses of 6 mg/day, week 12
[12] = Table 9A, seven consecutive daily oral doses of 6 mg/day, week 13
[13] = Table 9A, seven consecutive daily oral doses of 6 mg/day, week 14
[14] = Table 9A, seven consecutive daily oral doses of 6 mg/day, week 18
[15] = Table 9B, single oral dose of 6 mg/kg, week 1
[16] = Table 9B, single oral dose of 6 mg/kg, week 2
[17] = Table 9B, single oral dose of 6 mg/kg, week 3
[18] = Table 9B, single oral dose of 6 mg/kg, week 4
[19] = Table 9B, single oral dose of 6 mg/kg, week 5
[20] = Table 9B, single oral dose of 6 mg/kg, week 6
[21] = Table 9B, single oral dose of 6 mg/kg, week 7

O=C(O)/C=C/c1nn(Cc2ccc(Cl)cc2Cl)c2cc(C(F)(F)F)ccc12 [RC-MC-110, trans 3-[1-(2,4-dichlorobenzyl)-6-trifluoromethyl-1H-indazol-3-yl]-acrylic acid]
Embryos abnormal (mean number per pregnant female) [1]: 0.2 | Embryos normal (mean number per pregnant female) [1]: 15 | Males fertile (Table 9A, seven consecutive daily oral doses of 6 mg/day, week 1, 7 males mated): 7 | Embryos abnormal (mean number per pregnant female) [2]: 0.3 | Embryos normal (mean number per pregnant female) [2]: 13 | Males fertile (Table 9A, seven consecutive daily oral doses of 6 mg/day, week 2, 7 males mated): 7 | Embryos abnormal (mean number per pregnant female) [3]: 0 | Embryos normal (mean number per pregnant female) [3]: 7 | Males fertile (Table 9A, seven consecutive daily oral doses of 6 mg/day, week 3, 7 males mated): 2 | Embryos abnormal (mean number per pregnant female) [4]: 0.5 | Embryos normal (mean number per pregnant female) [4]: 7 | Males fertile (Table 9A, seven consecutive daily oral doses of 6 mg/day, week 4, 7 males mated): 3 | Embryos abnormal (mean number per pregnant female) [5]: 0 | Embryos normal (mean number per pregnant female) [5]: 0 | Males fertile (Table 9A, seven consecutive daily oral doses of 6 mg/day, week 5, 7 males mated): 0 | Embryos abnormal (mean number per pregnant female) [6]: 0 | Embryos normal (mean number per pregnant female) [6]: 0 | Males fertile (Table 9A, seven consecutive daily oral doses of 6 mg/day, week 6, 7 males mated): 0 | Embryos abnormal (mean number per pregnant female) [7]: 0 | Embryos normal (mean number per pregnant female) [7]: 0 | Males fertile (Table 9A, seven consecutive daily oral doses of 6 mg/day, week 7, 7 males mated): 0 | Embryos abnormal (mean number per pregnant female) [8]: 0 | Embryos normal (mean number per pregnant female) [8]: 0 | Males fertile (Table 9A, seven consecutive daily oral doses of 6 mg/day, week 8, 6 males mated): 0 | Embryos abnormal (mean number per pregnant female) [9]: 1 | Embryos normal (mean number per pregnant female) [9]: 9 | Males fertile (Table 9A, seven consecutive daily oral doses of 6 mg/day, week 9, 7 males mated): 1 | Embryos abnormal (mean number per pregnant female) [10]: 0 | Embryos normal (mean number per pregnant female) [10]: 2 | Males fertile (Table 9A, seven consecutive daily oral doses of 6 mg/day, week 10, 7 males mated): 1 | Embryos abnormal (mean number per pregnant female) [11]: 0.3 | Embryos normal (mean number per pregnant female) [11]: 14 | Males fertile (Table 9A, seven consecutive daily oral doses of 6 mg/day, week 12, 7 males mated): 2 | Embryos abnormal (mean number per pregnant female) [12]: 0.3 | Embryos normal (mean number per pregnant female) [12]: 15 | Males fertile (Table 9A, seven consecutive daily oral doses of 6 mg/day, week 13, 7 males mated): 2 | Embryos abnormal (mean number per pregnant female) [13]: 0 | Embryos normal (mean number per pregnant female) [13]: 14 | Males fertile (Table 9A, seven consecutive daily oral doses of 6 mg/day, week 14, 7 males mated): 2 | Embryos abnormal (mean number per pregnant female) [14]: 0 | Embryos normal (mean number per pregnant female) [14]: 14 | Males fertile (Table 9A, seven consecutive daily oral doses of 6 mg/day, week 18, 7 males mated): 2 | Embryos abnormal (mean number per pregnant female) [15]: 0.2 | Embryos normal (mean number per pregnant female) [15]: 15 | Males fertile (Table 9B, single oral dose of 6 mg/kg, week 1, 7 males mated): 7 | Embryos abnormal (mean number per pregnant female) [16]: 0.3 | Embryos normal (mean number per pregnant female) [16]: 12 | Males fertile (Table 9B, single oral dose of 6 mg/kg, week 2, 7 males mated): 7 | Embryos abnormal (mean number per pregnant female) [17]: 2 | Embryos normal (mean number per pregnant female) [17]: 6 | Males fertile (Table 9B, single oral dose of 6 mg/kg, week 3, 7 males mated): 2 | Embryos abnormal (mean number per pregnant female) [18]: 0 | Embryos normal (mean number per pregnant female) [18]: 0 | Males fertile (Table 9B, single oral dose of 6 mg/kg, week 4, 7 males mated): 0 | Embryos abnormal (mean number per pregnant female) [19]: 0 | Embryos normal (mean number per pregnant female) [19]: 0 | Males fertile (Table 9B, single oral dose of 6 mg/kg, week 5, 7 males mated): 0 | Embryos abnormal (mean number per pregnant female) [20]: 1 | Embryos normal (mean number per pregnant female) [20]: 10 | Males fertile (Table 9B, single oral dose of 6 mg/kg, week 6, 7 males mated): 1 | Embryos abnormal (mean number per pregnant female) [21]: 0 | Embryos normal (mean number per pregnant female) [21]: 13 | Males fertile (Table 9B, single oral dose of 6 mg/kg, week 7, 7 males mated): 2
